Assay [1] relates to splicing of Ad2 pre-mRNA in HeLa nuclear extract. In words: In vitro splicing (IVS) biochemical assay. To be noted: 30° C. On the procedure: Biotin-labeled pre-mRNA of an adenovirus type 2 construct with a deletion of intervening sequence (Ad2) (Berg, M. G., et al. 2012 Mol. Cell Bio., 32(7):1271-83) was prepared by in vitro transcription. The Ad2 construct containing Exon 1 (41 nucleotides), Intron (231 nucleotides), and Exon 2 (72 nucleotides) was generated by gene synthesis and cloned into the EcoRI and XbaI sites of pGEM®-3Z vector (Promega) by Genewiz® (South Plainfield, N.J.). The plasmid was then linearized by XbaI digestion and purified. In vitro transcription and purification of transcribed pre-mRNA were performed using the MEGAscript® T7 transcription kit (Invitrogen™, Life Technologies™, Grand Island, N.Y.) and MEGAclear™ transcription clean-up kit (Invitrogen™, Life Technologies™, Grand Island, N.Y.), respectively, following the manufacturer's instructions. The ratio of biotin-16-UTP (Roche Diagnostics Corporation, Indianapolis, Ind.) to cold UTP was 1:13 to incorporate approximately two biotin molecules per spliced Ad2 mRNA.
In vitro splicing assay was performed at 30° C. in 25 μL reaction mixtures containing 95 μg HeLa nuclear extract (Promega Corporation, Madison, Wis.), 47 nM Ad2 pre-mRNA, 25 U RNasin RNase inhibitor (Promega Corporation, Madison, Wis.), 1×SP buffer (0.5 mM ATP, 20 mM creatine phosphate, 1.6 mM MgCl2), and compounds in DMSO (with 1% final concentration of DMSO). After […] of incubation, the reaction was stopped by addition of 18 μL of 5M NaCl, and the mixtures were incubated with 10 μL of M-280 streptavidin-coated magnetic beads (Invitrogen™, Life Technologies™, Grand Island, N.Y.) for 30 min at room temperature to capture Ad2 pre- and spliced mRNA. The beads were washed twice with 100 uL buffer containing 10 mM Tris pH=7.5, 1 mM EDTA and 2M NaCl, and then incubated in RNA gel loading buffer containing 95% formamide at 70° C. for 10 min to elute the RNAs. Ad2 RNAs were resolved by 6% TBE-UREA gel, transferred to a nylon membrane, UV cross-linked, and probed with an IRDye® labeled streptavidin (LI-COR, Lincoln, Nebr.). The amount of spliced RNA was quantified by measuring the band fluorescent intensity using LI-COR Image Studio software.
The in vitro splicing (IVS) assay described above is a biochemical assay that monitors inhibition of the splicing of an exemplary pre-mRNA into an mRNA.

Assay [2] relates to Nalm-6 SF3B1^K700E isogenic cells (human pre B-cell line) xenograft. Put plainly: Nalm-6 SF3B1^K700E mouse xenograft efficacy model. The class given is in vivo, CB17-SCID mice. Conditions: orally dosed daily for 14 days (QD×14 PO). The procedure: The efficacy of Compound 2 was tested in a mouse xenograft model. Nalm-6 SF3B1^K700E isogenic cells (human pre B-cell line, 10×10^6 cells) were subcutaneously implanted into the flank of female CB17-SCID mice. Mice were treated with Compound 2 (10% ethanol, 5% TWEEN-80, 85% saline) or vehicle control. The animals were orally dosed daily for 14 days (QD×14 PO) at the amounts indicated in FIG. 2 and were monitored until they reached either of the following endpoints: 1) excessive tumor volume measured three times a week (tumor volume calculated by using the ellipsoid formula: (length×width^2)/2); or 2) development of any health problems such as paralysis or excessive body weight loss. All animal studies were carried out according to the H3 Biomedicine Guide for the Care and Use of Laboratory Animals.
The efficacy of Compound 1 was tested in a mouse xenograft model. […] The animals were orally dosed daily for 14 days (QD×14 PO) with 7.5 mg/kg or 10 mg/kg Compound 1 or vehicle and were monitored until they reached either of the following endpoints: 1) excessive tumor volume measured three times a week (tumor volume calculated by using the ellipsoid formula: (length×width^2)/2); or 2) development of any health problems such as paralysis or excessive body weight loss. […]

The test system of assay [3] is Pre-EIF4A1 and SLC25A19 expression in Nalm-6 SF3B1^K700E xenograft tumors. In words: PK/PD testing in Nalm-6 mouse xenograft model. The class given is in vivo, CB17-SCID mice. To be noted: single oral dose. On the procedure: Pharmacokinetics (PK)/pharmacodynamics (PD) of Compound 2 were also analyzed in the Nalm-6 mouse xenograft model. Nalm-6 SF3B1^K700E isogenic cells (human pre B-cell line, 10×10^6 cells) were subcutaneously implanted into the flank of female CB17-SCID mice. Mice were administered a single oral dose of 10 mg/kg Compound 2 (10% ethanol, 5% TWEEN-80, 85% saline), and the tumors were collected at the indicated times post administration for analysis.
RNA was isolated using RiboPure™ RNA purification kit (Ambion®) and used for qPCR analysis. The RNA was retrotranscribed according to the instructions of the SuperScript® VILO™ cDNA synthesis kit (Invitrogen™), and 0.04 μl of cDNA was used for quantitative PCR (qPCR). qPCR for pre-mRNA EIF4A1 and mature mRNA […] and PK evaluation were performed as reported previously (Eskens, F. A. et al. Phase I pharmacokinetic and pharmacodynamic study of the first-in-class spliceosome inhibitor E7107 in patients with advanced solid tumors. Clin Cancer Res. 19, 6296-6304, doi:10.1158/1078-0432.CCR-13-0485 (2013)). All animal studies were carried out according to the H3 Biomedicine Guide for the Care and Use of Laboratory Animals.
Pharmacokinetics (PK)/pharmacodynamics (PD) of Compound 1 were also analyzed in the Nalm-6 mouse xenograft model. […]

Assay [4] deals with alternative splicing in Nalm-6 isogenic cells. In words: Alternative splicing modulation (nCounter Nanostring analysis). In kind it is cell-based, human. Conditions: 10×GI50 for 6 hours. On the procedure: The “+” and “−” indicate positive or negative values, respectively, in the shade key, which indicates the varying levels of expression of the different splice junctions.
The modulation of alternative splicing for E7107 and Compound 2 was determined using the nCounter® analysis system (NanoString Techologies, Inc., Seattle, Wash.). Nalm-6 isogenic cells were treated with Compound 2 or E7107 (obtained from Eisai, Inc.) at 10×GI50 for 6 hours. RNA was isolated using RiboPure™ RNA purification kit (Ambion®) and used for analysis. The RNA was retrotranscribed according to the instructions of the SuperScript® VILO™ cDNA synthesis kit (Invitrogen™) and 0.04 μl of cDNA was used for qPCR.

Experimental findings from patent US9481669B2, “Pladienolide pyridine compounds and methods of use” (Eisai R&D Management Co., Ltd., priority 2014, dated 2016) are described below.

SMILES strings stand for the structures.

For the compound `C/C(=C\C=C\[C@@H](C)c1ccccn1)[C@H]1OC(=O)C[C@H](O)CC[C@@](C)(O)[C@@H](OC(=O)N2CCC(N3CCCCC3)CC2)/C=C/[C@@H]1C` [Compound 4, (2S,3 S,6S,7R,10R,E)-7,10-dihydroxy-3,7-dimethyl-12-oxo-2-((R,2E,4E)-6-(pyridin-2-yl)hepta-2,4-dien-2-yl)oxacyclododec-4-en-6-yl[1,4′-bipiperidine]-1′-carboxylate], the IC50 in assay [1] amounted to 89 nM.
Turning to `C/C(=C\C=C\[C@@H](C)c1ccccn1)[C@H]1OC(=O)C[C@H](O)CC[C@@](C)(O)[C@@H](OC(=O)N2CCN(C3CCCCCC3)CC2)/C=C/[C@@H]1C` [Compound 1, (2S,3S,6S,7R,10R,E)-7,10-dihydroxy-3,7-dimethyl-12-oxo-2-((R,2E,4E)-6-(pyridin-2-yl)hepta-2,4-dien-2-yl)oxacyclododec-4-en-6-yl 4-cycloheptylpiperazine-1-carboxylate], in assay [2], the “efficacy / tumor growth in xenograft mouse model” value is “efficacious when administered via the oral route and reduced tumor growth”. The “PD responses (fold change in Pre-EIF4A1 and SLC25A19 expression in tumor)” value in assay [3] is “showed PD responses at a tolerated dose”. This compound also returned an IC50 in assay [1] of 188 nM.
Turning to `C/C(=C\C=C\[C@@H](C)c1ccccn1)[C@H]1OC(=O)C[C@H](O)CC[C@@](C)(O)[C@@H](OC(=O)N2CCC(N3CCCCCC3)CC2)/C=C/[C@@H]1C` [Compound 3, (2S,3S,6S,7R,10R,E)-7,10-dihydroxy-3,7-dimethyl-12-oxo-2-((R,2E,4E)-6-(pyridin-2-yl)hepta-2,4-dien-2-yl)oxacyclododec-4-en-6-yl 4-(azepan-1-yl)piperidine-1-carboxylate], it took 770 nM to reach half-maximal inhibition in assay [1] (IC50).
Regarding `C/C(=C\C=C\[C@@H](C)c1ccccn1)[C@H]1OC(=O)C[C@H](O)CC[C@@](C)(O)[C@@H](OC(=O)N2CCN(C)CC2)/C=C/[C@@H]1C` [Compound 2, (2S,3 S,6S,7R,10R,E)-7,10-dihydroxy-3,7-dimethyl-12-oxo-2-((R,2E,4E)-6-(pyridin-2-yl)hepta-2,4-dien-2-yl)oxacyclododec-4-en-6-yl 4-methylpiperazine-1-carboxylate], in assay [2], the “efficacy / tumor growth in xenograft mouse model” value is “efficacious when administered via the oral route and reduced tumor growth”. In assay [3], the “PD responses (fold change in Pre-EIF4A1 and SLC25A19 expression in tumor)” value is “showed PD responses at a tolerated dose”. Further, the IC50 in assay [1] was 1330 nM. Also, in assay [4], the splicing modulation profile entry is on record as “distinct from the profile of E7107”.
